This passage reports Intracellular calcium release and Ki results from PMC6372246 (ACS Omega, 2019).

Where “and” joins values, the source holds several entries; their conditions need not be identical. Identical values can stand only once.

For test [1], the target named is GRPR (Homo sapiens, UniProt P30550). In words: Fluorometric calcium release assay. Format: cell-based. The note with it: PC-3 cells, 50 nM.
The target of test [2] is GRPR. The conditions noted are these: read-out: Ki (reported value); murine Swiss 3T3 cells; cited from earlier work.

Chain of GRPR (Homo sapiens, UniProt P30550) (P30550 whole entry): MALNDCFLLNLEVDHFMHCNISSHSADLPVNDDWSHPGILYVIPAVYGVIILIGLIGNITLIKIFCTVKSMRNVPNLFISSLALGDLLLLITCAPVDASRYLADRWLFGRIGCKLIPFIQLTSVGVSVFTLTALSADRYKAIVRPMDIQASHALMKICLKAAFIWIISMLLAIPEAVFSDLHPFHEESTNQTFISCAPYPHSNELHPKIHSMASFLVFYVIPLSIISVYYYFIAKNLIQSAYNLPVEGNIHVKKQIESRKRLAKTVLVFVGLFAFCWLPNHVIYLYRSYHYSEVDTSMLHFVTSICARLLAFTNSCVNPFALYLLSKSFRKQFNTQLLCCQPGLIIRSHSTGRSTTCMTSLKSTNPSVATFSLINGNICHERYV

As for `Nc1ncnc2c1ncn2[C@@H]1O[C@H](COP(=O)(O)OP(=O)(O)OP(=O)(O)O)[C@@H](O)[C@H]1O` [ATP, adenosine triphosphate], the Intracellular calcium release at GRPR [1] was 511 ± 45.5 RFUs and > 500 RFUs.
As for “D-Phe-Gln-Trp-Ala-Val-Gly-His-Leu-ψ-Tac-NH2 [RC-3950-II]”, the Ki at GRPR [2] is 0.078 nM.

The term Ki denotes a dissociation constant, usually derived from enzyme kinetics or from competition with a known ligand.
